Data on 6 molecules can be found in US9446065B2, “Pharmaceutical composition for use in the treatment and/or the prevention of osteoarticular diseases” (BONE THERAPEUTICS, priority 2008, dated 2016).

Several values for one entry are separate records, joined by “and”; a condition that tells them apart may be missing. Equal entries are not always repeated. Where two headings read alike, the source gives them in different places.

For orientation: inhibition means the share of the control response that was lost under treatment.

The subject of one series is IL-I beta. Description: Inhibition of IL-I beta release by LPS-stimulated TH1 cells. The series is classed as cell-based. The protocol:
The inhibition of IL-I beta release by alpha-2-adrenergic agonists, induced by LPS stimulation of TH1 cells, is measured under control conditions (dexamethasone).

The next series has as its system acute pain. To be noted: cited from earlier work.
The test system of series [1] is PBMC (Peripheral blood mononuclear cells). Description: PBMC proliferation assay (3H-thymidine). It counts as cell-based, human. As to conditions: for Proliferation: HA 200 μg/mL, A2A 5 μM. The protocol: (§1) The effects of the combination clonidine and hyaluronic acid were tested in a model of Peripheral Blood Mononuclear Cells. In brief, PBMCs (Peripheral blood mononuclear cells) from heparinized venous blood of healthy volunteers were isolated by Ficoll-gradient centrifugation. MNC (Mononuclear cells) were washed three times in PBS and resuspended in RPMI-1640 medium supplemented with 100 U/mL penicillin, 100 μg/mL streptomycin, and 10% heat-inactivated FBS. Cells were seeded at 100.000 cells in 96-wel plate in a total volume of 200 μL/well.
(§2) PBMC, at 100.000 cells/200 μL, were plated in 96-well microtiter plates and stimulated or not 10 μg/mL phytohemagglutinin (PHA). Effects of hyaluronic acid “HA” (200 μg/mL) and p-aminoclonidine “A2A” (5 μM) were tested on PBMC.
Proliferation Assay. The culture was incubated with 1 μCi/mL 3H-thymidine for 24 h before end of culture to measure the proliferation. Then, cells were washed twice with ice-cold PBS and twice with ice-cold 5% trichloroacetic acid (TCA). Finally, cells were lysed with 0.1N NaOH-0.1% Triton-X100. Supernatants were collected and analyzed on a beta-counter in presence of scintillation liquid. Results were done in cpm (“count per minute”=disintegration number of radioactive element observed in series of successive counts of one minute).
(§3) The release of IL-1beta by PBMC and the proliferation of PBMC, induced by PHA stimulation, were set as controls, and compared with the measures for PBMC treated with HA and/or A2A.

For another series, the system named is IL-1β. Description: IL-1β detection (ELISA) in PBMC culture. The series is classed as cell-based, human. As to conditions: for IL-1β detection: HA 200 μg/mL, A2A 5 μM. The protocol: as §1, §2
IL-1β detection (By ELISA). Levels of IL-1β from PBMC or culture supernatants were measured by Quantikine ELISA kit (R&D Systems Inc, Minneapolis, USA). The minimum detectable concentration of IL-1β was estimated at 1.0 pg/mL.
as §3

The next series relates to mono-arthritis symptoms. Set-up: Reduction in Pain: concentration or dose not given beside the values. As to conditions: cited from earlier work.
[2] abbreviates: PBMC + PHA 10 μg/mL, PBMC + PHA = 100.
Setting [3] is: PBMC not stimulated, PBMC + PHA = 100.
The mark [4] stands for this setting: average data from meta-analyses and/or published studies.

On to `Brc1c(NC2=NCCN2)ccc2nccnc12` [Brimonidine], for which the “effect on IL-I beta release, in words” value in the series with IL-I beta is recorded as “no effects”.

`C[C@@H]1C[C@H]2[C@@H]3CCC4=CC(=O)C=C[C@]4(C)[C@@]3(F)[C@@H](O)C[C@]2(C)[C@@]1(O)C(=O)CO` [Dexamethasone]: the inhibition at 0.1 µM with IL-I beta (10^−7 M, read-out: inhibition of IL-I beta secretion) was about 65%.

As for `Clc1cccc(Cl)c1NC1=NCCN1` [clonidine, N-(2,6-dichlorophenyl)-4,5-dihydro-1H-imidazol-2-amine], in the series on acute pain (Alagol et al, 2005), the “minimum effect duration in acute pain studies” value was 4 h. Besides, the “duration of effects in acute pain studies (not to exceed)” value in the series with acute pain (Gentili et al, 2001) is at most 72 h.

Regarding `N=C(N)N/N=C/c1c(Cl)cccc1Cl` [Guanabenz], the “effect on IL-I beta release, in words” value with IL-I beta is reported as “no effects”.

Regarding `Nc1cc(Cl)c(N=C2NCCN2)c(Cl)c1` [A2A, p-aminoclonidine], the “effect on PBMC proliferation, in words” value in series [1] (PBMC + PHA) is “not able to inhibit PBMC proliferation”. Besides, the Proliferation worked out at 16212 cpm in series [1] (PBMC + PHA 10 μg/mL), 101% in series [1] (setting [2]), 786 cpm in series [1] (PBMC not stimulated) and 4.9% in series [1] (setting [3]). The “effect on IL-1beta secretion, in words” value with IL-1β (PBMC + PHA) is listed as “totally suppresses the increase in IL-1beta secretion”. For the same molecule, the “effect on basal conditions, in words” value with IL-1β (unstimulated PBMC) is “no effect”.

Consider hyaluronic acid [HA], for which the “Improvement in Function” value with mono-arthritis symptoms (Arich et al., 2005) is on record as −11%; in the series with mono-arthritis symptoms (Kolarz et al., 2003), −23%; with mono-arthritis symptoms (setting [4]), −15%. For the same molecule, the “Reduction in Pain” value is given as 0% with mono-arthritis symptoms (Arich et al., 2005); −55% in the series on mono-arthritis symptoms (Kolarz et al., 2003); −7% with mono-arthritis symptoms (Lo et al., 2004); −8% in the series on mono-arthritis symptoms (Wang et al., 2004); −10% in the series on mono-arthritis symptoms (setting [4]). The “Reduction in Pain (max effect reported)” value in the series with mono-arthritis symptoms (Arich et al., 2005) was −17%; in the series on mono-arthritis symptoms (Lo et al., 2004), −47%; in the series with mono-arthritis symptoms (Wang et al., 2004) it was −24%. The “improvement in function, maximal effect reported in literature” value in the series with mono-arthritis symptoms (Kolarz et al., 2003) was 23%. Further, the “improvement in pain, maximal effect reported in literature” value in the series with mono-arthritis symptoms (Kolarz et al., 2003) is 55%. Also, in the series with mono-arthritis symptoms (setting [4]), the “Side-Effects (major side effects only)” value was “None”. In addition, the benefit on swelling entry in the series on mono-arthritis symptoms (literature) is “no reported benefit on swelling”. For the same molecule, the “decrease of pain score (VAS) in meta-analyses” value in the series with mono-arthritis symptoms (meta-analyses that reassessed efficacy) was at most 15 mm. Besides, the “reduction of PBMC proliferation” value in series [1] (PBMC + PHA) was 2 factor. Further, the Proliferation in series [1] (PBMC + PHA 10 μg/mL) was 9087 cpm; in series [1] (setting [2]), 57% and 56%; in series [1] (PBMC not stimulated), 364 cpm; in series [1] (setting [3]), 2.2%. Moreover, in the series with IL-1β (PBMC + PHA), the “increase of IL-1beta secretion over the stimulated conditions” value was 3 times. Further, the IL-1β detection was 6394 pg/mL in the series on IL-1β (PBMC + PHA 10 μg/mL); 293% and 292% with IL-1β (setting [2]); 2095 pg/mL with IL-1β (PBMC not stimulated); 96% with IL-1β (setting [3]).
